# Measured values from the supplement of paper PMC10307832.
# Tests used:
# Assay in all cases: relative viability (nuclei count vs DMSO), 5 days (fraction); higher = more cells survive
# ALW-II-49-7 + Crizotinib = compound: Cc1ccc(C(=O)Nc2cccc(C(F)(F)F)c2)cc1Nc1cncc(C(N)=O)c1 [ALW-II-49-7] + C[C@@H](Oc1cc(-c2cnn(C3CCNCC3)c2)cnc1N)c1c(Cl)ccc(F)c1Cl [Crizotinib] (partner 1 µM)
# Procedure, shortened: (§1)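 Lung cancer cell lines were seeded in 1536-well plates and dosed by pin tool the next day, with either a single drug or a fixed anchor-drug dose combined with five library-drug doses (not always all listed) spaced in √10 steps. Five days later, one step fixed the cells and stained their nuclei (final 0.05% Triton X-100, 1% formaldehyde, 1 ug/ml Hoechst), and nuclei were counted on 4× images. Relative viability is the nuclei count in treated wells divided by the count in vehicle wells, and each value is the median of duplicate plates.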
# ALW-II-49-7 + Tozasertib = compound: Cc1ccc(C(=O)Nc2cccc(C(F)(F)F)c2)cc1Nc1cncc(C(N)=O)c1 [ALW-II-49-7] + Cc1cc(Nc2cc(N3CCN(C)CC3)nc(Sc3ccc(NC(=O)C4CC4)cc3)n2)n[nH]1 [Tozasertib] (partner 0.1 µM)
# Procedure, shortened: as §1
# Dasatinib + Bortezomib = compound: Cc1nc(Nc2ncc(C(=O)Nc3c(C)cccc3Cl)s2)cc(N2CCN(CCO)CC2)n1 [Dasatinib] + CC(C)C[C@H](NC(=O)[C@H](Cc1ccccc1)NC(=O)c1cnccn1)B(O)O [Bortezomib] (partner 0.002 µM)
# Procedure, shortened: as §1
# Dasatinib + Vorinostat = compound: Cc1nc(Nc2ncc(C(=O)Nc3c(C)cccc3Cl)s2)cc(N2CCN(CCO)CC2)n1 [Dasatinib] + O=C(CCCCCCC(=O)Nc1ccccc1)NO [Vorinostat] (partner 1 µM)
# Procedure, shortened: as §1
Cell Line,relative viability (ALW-II-49-7 + Crizotinib; first compound 0.08 µM),relative viability (ALW-II-49-7 + Crizotinib; first compound 0.253 µM),relative viability (ALW-II-49-7 + Crizotinib; first compound 0.8 µM),relative viability (ALW-II-49-7 + Crizotinib; first compound 2.53 µM),relative viability (ALW-II-49-7 + Crizotinib; first compound 8 µM),relative viability (ALW-II-49-7 + Tozasertib; first compound 0.08 µM),relative viability (ALW-II-49-7 + Tozasertib; first compound 0.253 µM),relative viability (ALW-II-49-7 + Tozasertib; first compound 0.8 µM),relative viability (ALW-II-49-7 + Tozasertib; first compound 2.53 µM),relative viability (ALW-II-49-7 + Tozasertib; first compound 8 µM),relative viability (Dasatinib + Bortezomib; first compound 0.005 µM),relative viability (Dasatinib + Bortezomib; first compound 0.01581 µM),relative viability (Dasatinib + Bortezomib; first compound 0.05 µM),relative viability (Dasatinib + Bortezomib; first compound 0.1581 µM),relative viability (Dasatinib + Bortezomib; first compound 0.5 µM),relative viability (Dasatinib + Vorinostat; first compound 0.005 µM),relative viability (Dasatinib + Vorinostat; first compound 0.01581 µM),relative viability (Dasatinib + Vorinostat; first compound 0.05 µM),relative viability (Dasatinib + Vorinostat; first compound 0.1581 µM),relative viability (Dasatinib + Vorinostat; first compound 0.5 µM)
PC-3 [JPC-3],0.854,0.979,1.05,1.06,1.01,0.653,0.946,0.867,0.776,0.843,0.839,0.733,0.925,0.818,0.465,0.86,0.953,0.787,0.522,0.475
HCC-44,0.902,0.773,0.729,0.823,0.782,–,0.908,0.874,0.109,0.664,0.857,0.857,0.993,0.894,0.45,1.26,1.03,1.32,1.16,0.867
NCI-H2405,0.928,0.806,0.832,0.826,0.68,0.73,0.692,0.687,0.642,0.547,0.879,0.956,0.616,0.475,0.306,0.838,0.597,0.427,0.188,0.227
LXF-289,0.817,0.817,0.911,0.923,0.876,0.187,0.194,0.168,0.184,0.182,1.03,1.12,0.93,0.518,0.204,0.754,0.779,0.762,0.495,0.254
LOU-NH91,0.744,0.767,0.728,0.466,0.703,0.622,0.468,0.633,0.631,0.575,0.477,0.477,0.479,0.485,0.487,0.822,0.846,0.687,0.583,0.429
A549,0.753,0.852,0.596,0.754,0.624,–,–,–,–,–,–,–,–,–,–,–,–,–,–,–
H3255,0.945,0.993,0.81,0.696,0.564,0.724,0.613,0.675,0.625,0.42,0.795,0.749,0.623,0.504,0.299,0.826,0.789,0.777,0.828,0.37
NCI-H1395,–,–,–,–,–,0.746,0.825,0.736,0.779,0.631,–,–,–,–,–,0.722,0.762,0.515,0.291,0.387
LC-2-ad,0.354,0.461,0.476,0.378,0.393,0.405,0.428,0.431,0.209,0.434,0.582,0.985,1.01,0.871,0.36,0.723,0.675,0.75,0.493,0.337
NCI-H838,0.851,0.871,0.854,0.788,1,0.245,0.274,0.264,0.259,0.265,0.747,0.395,0.445,0.198,0.202,0.678,0.632,0.584,0.422,0.348
Calu-6,0.736,0.737,0.718,0.904,0.554,–,–,–,–,–,0.869,0.855,0.746,0.642,0.513,–,–,–,–,–
NCI-H1648,–,–,–,–,–,0.382,0.236,0.243,0.313,0.382,–,–,–,–,–,0.374,0.481,0.606,0.266,0.179
LCLC-97TM1,0.609,0.262,0.532,0.313,0.297,0.151,0.188,0.192,0.168,0.18,0.525,0.561,0.735,0.665,0.461,0.91,0.829,0.905,0.523,0.35
HCC-15,0.805,0.86,0.786,0.831,0.886,0.325,0.367,0.272,0.328,0.333,1.01,1.01,1.11,0.965,0.743,0.85,0.719,0.842,0.655,0.669
CAL-12T,0.537,0.625,0.686,0.62,0.385,0.289,0.406,0.389,0.274,0.308,0.992,1.06,0.875,0.354,0.207,1.02,0.846,0.708,0.477,0.225
NCI-H727,0.739,0.874,0.847,0.804,0.885,0.599,0.647,0.642,0.687,0.538,0.606,0.663,0.554,0.463,0.258,1.18,0.97,0.841,0.871,0.264
ABC-1,0.978,0.92,0.838,1.05,1.03,0.172,0.179,0.162,0.197,0.191,0.295,0.303,0.247,0.269,0.351,1.18,1.17,0.731,0.787,0.706
NCI-H2023,0.703,0.714,0.554,0.622,0.729,0.257,0.464,0.276,0.259,0.189,0.788,0.818,0.791,0.705,0.669,0.681,0.688,0.568,0.561,0.429
